Like-named read-outs stand apart in the source and are kept apart here.
How the values were obtained:
[1] = test system: prostaglandin synthesis; details: in vitro; cited from earlier work
[2] = test system: C57BL6BYJ mice; experiment: tail suspension test; format: in vivo; details: male mice
Experimental: The experiment used 112 C57BL6BYJ mice (Jackson Laboratories, Bar Harbor, Me.) which were housed in same sex groups (n=3-5) and maintained on a reversed 12 h light-dark cycle, with all testing being completed during the first 4 h of the dark phase cycle. Food and water were provided ad libitum except during behavioural testing. The subjects were six weeks old at the time of testing and consisted of groups with equal numbers of males (18-26 g) and females (15-21 g).
The substantially pure CBC extract (54.0 mg/ml in ethanol) was diluted in Tween 80 and subsequently diluted further to the correct dose with PBS (pH 7.4). The final concentration of Tween 80 was 5% for all preparations.
Imipramine (30 mg/kg) was used as an antidepressant control and diluted as per the CBC extract. Test article at doses of 0, 5, 10, 20, 40, 80 mg/kg/0.01 ml/g bodyweight were administered i.p. under sodium light to minimise exposure to light.
For the tail suspension test, a sound-attenuated chamber (Lafayette Instruments, Lafayette, Ind.) with a titanium bar (1 cm diameter×24 cn long) mounted 15 cm from the floor of the test chamber was used. An opto-electronic sensor was mounted in a 4 cm×4 cm white plastic column and positioned 5 cm from the mounting bar. An infra-red light transmitted from the light emitting diode onto the animal. If the animal moved, the amount of light collected by the phototransistor would increase or decrease depending on the size and duration of the movement. The opto-electric sensor was connected to an interface designed to condition and amplify the signal (range 0-10 volts) and then send the amplified signal to an A/D interface board (Powerlab 4/s: AD Instruments, Mountain View, Calif.) connected to a Macintosh G4 microcomputer. The duration of the experiment and the recording of raw behavioural responses was controlled and saved to a data file using Chart 3.6 data collection software (AD Instruments, Mountain View, Calif.).
On the day of testing, the mice were weighed and randomly assigned to groups with the restriction that equal numbers of males and females be represented in each group. Test article or control drug was injected intraperitoneally. Thirty minutes later each mouse was tested on the tail-suspension test for six minutes.
The mouse was suspended from a bar by the tail using adhesive tape so that the tip of their nose was 2 cm from the floor of the tail suspension chamber. The photodiode was then placed 5 cm away from the subject and aimed at the middle of the subject's ventral surface. Each subject was tested for six minutes. The total number of movements and total amount of time spent immobile were recorded. […] A period of immobility was counted only if no movements above 350 mV were recorded for at least 1000 ms. The total amount of time spent immobile was calculated by summing the duration of the individual immobility periods. These criteria were selected to be similar to those used in previous tail suspension studies (e.g., Steru et al., 1985).
Antidepressant effects are indicated by an increase in the frequency of struggling activity during the test. In addition the degree or amplitude of struggling is thought to be a predictor of antidepressant activity.
The results shown in FIGS. 2 to 7 are from the male mice only as the data obtained from the female mice were confounded by the oestrous cycle.

[3] = test system: mice; details: cited from earlier work
[4] = test system: rat paw edema; details: in vivo, equivalent doses; cited from earlier work
[5] = test system: erythrocyte membrane; details: in vitro, equivalent doses; cited from earlier work
[6] = test system: dogs; details: cited from earlier work
[7] = test system: rats; details: cited from earlier work
[8] = test system: monkeys or humans; details: cited from earlier work
[9] = test system: rats; details: co-administration of CBC with THC; cited from earlier work

CCCCCc1cc(O)c2c(c1)OC1(C)CCC3C1C2C3(C)C (centres unmarked) [Cannabicyclol]
inhibition of prostaglandin synthesis [1]: almost no inhibitory activity

CCCCCc1cc(O)c2c(c1)OC(C)(CCC=C(C)C)C=C2 (centres unmarked) [CBC, cannabichromene]
all activity compared with imipramine ([2]; CBC 10 mg/kg/0.01 ml/g bodyweight i.p. vs imipramine 30 mg/kg): comparable to those observed in the mice administered imipramine | degree of struggling (percentage very large vigorous movements), mean ([2]; CBC 20 mg/kg/0.01 ml/g bodyweight i.p.): 31.4% | degree of struggling (percentage very large vigorous movements), mean ([2]; CBC 80 mg/kg/0.01 ml/g bodyweight i.p.): 30.2% | number of large vigorous movements compared with imipramine ([2]; CBC 10 and 40 mg/kg/0.01 ml/g bodyweight i.p. vs imipramine 30 mg/kg): comparable number of large vigorous movements | number of large vigorous movements compared with imipramine ([2]; CBC 20 or 80 mg/kg/0.01 ml/g bodyweight i.p. vs imipramine 30 mg/kg): greater number of large vigorous movements in the animals than imipramine | most efficient dose for antidepressant action ([2]; i.p., from Fisher's PLSD of struggling): 20 mg/kg/0.01 ml/g bodyweight | LD50 ([3]; single intraperitoneal dose): 113.4 mg/kg | anti-inflammatory effect compared with phenylbutazone [4]: as effective as phenylbutazone (PBZ) | anti-inflammatory effect compared with phenylbutazone [5]: as effective as phenylbutazone (PBZ) | inhibition of prostaglandin synthesis [1]: less potently than THC or CBD | sedation [6]: causes sedation | muscular coordination [7]: decreased muscular coordination | cannabimimetic activity [8]: has not been shown to cause any cannabimimetic activity | effect on THC changes in heart rate [9]: potentiates the THC changes in heart rate | effect on THC's hypotensive effects [9]: does not potentiate THC's hypotensive effects

CCCCCc1cc(O)cc(O)c1 [Olivetol]
inhibition of prostaglandin synthesis [1]: high activity

CN(C)CCCN1c2ccccc2CCc2ccccc21 [imipramine, reference compound]
activity mean (all activity) ([2]; imipramine 30 mg/kg/0.01 ml/g bodyweight i.p., 30 min after dosing, 6 min test): 733.5

CCCCCc1cc(O)c2c(c1)OC(C)(C)[C@@H]1CCC(C)=C[C@@H]21 [Δ9-THC]
LD50 ([3]; single intraperitoneal dose): 276.3 mg/kg | LD50 ([3]; Δ9-THC with 25 mg/kg CBC given concurrently): 152.0 mg/kg
